Bridges are numbered along the chain shown (N, C = ends). Where no end group is shown, it is not given here.
Experiments:
hypertensive SHR rats = experiment: Arterial blood pressure in hypertensive SHR rats after IP MMP-2 inhibitor; format: in vivo, rat; conditions: 5 mg IP
[1] = system: Male 10-week-old Lewis/ssncr rats; experiment: Blood pressure measurements in rats after intravenous peptide injection; format: in vivo, rat
Procedure: Blood pressure measurements. Male 10-week-old Lewis/ssncr rats (SAIC, Frederic, Md.) were anesthetized with 3% halothane, intubated, and maintained with 1% halothane in 70% nitrous oxide and 30% oxygen (VMS Anesthesia Machine, Matrx, Medical Inc., Orchard Park, N.Y.) at 82 strokes/minute. Rectal temperature was monitored through the experiment. A PE50 catheter was placed on the right femoral artery and arterial blood pressure was recorded through a P23XL transducer (Grass Instruments, Quincy, Mass.). Peptides were injected into the right femoral vein through another catheter. To confirm that changes in blood pressure were not an artifact of the anesthesia, the experiments were repeated in conscious animals. After catheters were placed under anesthesia, the animals were allowed to recover for 24-48 hours before taking blood pressure measurements. All procedures were performed under a protocol approved by the National Institutes of Health.

[2] = molecular target: T1, AM receptor in Rat2 cells (Rattus norvegicus, UniProt Q63118); experiment: Measurement of cAMP response in Rat2 cells (radioimmunoassay); format: cell-based; conditions: for intracellular elevation of cAMP: peptides applied 5 minutes, versus PBS control
T1 construct: Rat2 is a fibroblast cell line that contains a well characterized AM receptor; host or cells: Rat2 rat fibroblast cell line
T1 sequence (Q63118 23-464 limits assumed): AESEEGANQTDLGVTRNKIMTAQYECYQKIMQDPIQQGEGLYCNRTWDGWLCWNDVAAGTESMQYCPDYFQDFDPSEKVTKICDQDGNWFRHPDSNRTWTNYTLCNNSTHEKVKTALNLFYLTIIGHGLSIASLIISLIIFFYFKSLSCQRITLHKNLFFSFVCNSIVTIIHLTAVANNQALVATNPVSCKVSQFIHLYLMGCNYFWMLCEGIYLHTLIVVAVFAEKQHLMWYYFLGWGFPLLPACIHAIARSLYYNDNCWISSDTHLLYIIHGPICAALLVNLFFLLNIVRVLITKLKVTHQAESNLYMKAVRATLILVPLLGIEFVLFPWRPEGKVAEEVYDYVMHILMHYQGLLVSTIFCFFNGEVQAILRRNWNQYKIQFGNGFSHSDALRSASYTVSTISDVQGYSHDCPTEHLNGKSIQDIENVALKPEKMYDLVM
T1 sequence (Q9JHJ1 46-182 partner): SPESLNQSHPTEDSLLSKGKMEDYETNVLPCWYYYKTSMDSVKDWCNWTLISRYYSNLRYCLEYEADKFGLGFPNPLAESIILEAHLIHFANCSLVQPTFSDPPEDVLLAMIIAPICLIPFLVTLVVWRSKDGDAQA
Procedure: Measurement of cAMP response. The rat fibroblast cell line Rat2 was obtained from the American Tissue Culture Collection (Manassas, Va.) and kept in RPMI-1640 medium supplemented with 10% fetal calf serum (Invitrogen). Accumulation of intracellular cAMP was measured as described (Pío et al., J. Biol. Chem. 276:12292-12300, 2001). Cells were seeded in 24-well plates at 2×10^4 cells/well and incubated at 37° C. in 5% CO2 until they reached 80% confluency. Before the assay, cells were incubated for 15 minutes in TIS medium (RPMI-1640 plus 10 μg/ml transferrin, 10 μg/ml insulin, and 50 nM sodium selenite) containing 1% bovine serum albumin, 1 mg/ml bacitracin, and 100 μM isobutylmethylxanthine. Peptides were applied in the same medium for 5 minutes at the indicated concentrations in a volume of 250 μl. The reaction was terminated by adding an equal volume of ice-cold ethanol. cAMP contents were measured using the Biotrac cAMP radioimmunoassay (Amersham).
To determine if AM peptide fragments elicit their hypotensive and hypertensive effects via the AM receptor, their cAMP response in fibroblasts was examined.

blood pressure = conditions: Kitamura et al. 2001; cited from earlier work
anesthetized rats = conditions: Watanabe et al. 1996; cited from earlier work
Human recombinant MMP-2 = molecular target: T2, Human recombinant MMP-2 (Homo sapiens, UniProt P08253); experiment: Digestion reactions with MMP-2 (gel, HPLC); format: biochemical; conditions: low salt collagenase buffer, absence of factor H
T2 construct: made in house
T2 sequence (P08253 110-660): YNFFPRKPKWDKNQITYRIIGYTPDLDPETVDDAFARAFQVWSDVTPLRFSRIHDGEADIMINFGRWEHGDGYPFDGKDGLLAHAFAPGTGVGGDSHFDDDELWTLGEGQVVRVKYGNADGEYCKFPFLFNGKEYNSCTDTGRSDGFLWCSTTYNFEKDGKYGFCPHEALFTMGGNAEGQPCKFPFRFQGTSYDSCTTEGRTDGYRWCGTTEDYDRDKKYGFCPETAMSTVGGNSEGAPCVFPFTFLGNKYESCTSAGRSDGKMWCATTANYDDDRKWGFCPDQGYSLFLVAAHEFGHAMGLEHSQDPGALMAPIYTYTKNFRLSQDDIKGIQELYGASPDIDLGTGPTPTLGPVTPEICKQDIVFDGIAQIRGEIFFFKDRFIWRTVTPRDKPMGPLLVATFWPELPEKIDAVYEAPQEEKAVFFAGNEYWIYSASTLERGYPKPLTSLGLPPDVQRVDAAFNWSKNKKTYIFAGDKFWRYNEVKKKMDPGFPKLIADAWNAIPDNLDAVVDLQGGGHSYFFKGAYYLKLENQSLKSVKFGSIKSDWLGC
Procedure: (§1) Digestion reactions. Synthetic AM (240 μg/reaction) was exposed to 11.5 μg MMP-2 or MMP-9 in low salt collagenase buffer (50 mM Tris, pH 7.5, 50 mM NaCl, 0.02% Brig) for different periods of time in the presence or absence of 6 mg factor H. These amounts correspond to an approximate molar ratio of 1:250:250 (enzyme:AM:factor H). The reaction was stopped with EDTA. Digestion reactions were run in 16% Tricine gels (Invitrogen, Carlsbad, Calif.) under reducing conditions and stained with Gel Code Blue Stain Reagent (Pierce, Rockford, Ill.).
High performance liquid chromatography (HPLC). Digestion reactions were also loaded into an analytical reverse phase R2H 5×100 mm HPLC column (Poros, Applied Biosystems, Foster City, Calif.) in a 10-60% acetonitrile gradient over 10 minutes and the protein peaks eluted from the column were detected with a wavelength of 230 nm.

Human recombinant MMP-9 = molecular target: T3, Human recombinant MMP-9 (Homo sapiens, UniProt P14780); experiment: Digestion reactions with MMP-9 (gel); format: biochemical; conditions: low salt collagenase buffer
T3 construct: made in house
T3 sequence (P14780 94-707): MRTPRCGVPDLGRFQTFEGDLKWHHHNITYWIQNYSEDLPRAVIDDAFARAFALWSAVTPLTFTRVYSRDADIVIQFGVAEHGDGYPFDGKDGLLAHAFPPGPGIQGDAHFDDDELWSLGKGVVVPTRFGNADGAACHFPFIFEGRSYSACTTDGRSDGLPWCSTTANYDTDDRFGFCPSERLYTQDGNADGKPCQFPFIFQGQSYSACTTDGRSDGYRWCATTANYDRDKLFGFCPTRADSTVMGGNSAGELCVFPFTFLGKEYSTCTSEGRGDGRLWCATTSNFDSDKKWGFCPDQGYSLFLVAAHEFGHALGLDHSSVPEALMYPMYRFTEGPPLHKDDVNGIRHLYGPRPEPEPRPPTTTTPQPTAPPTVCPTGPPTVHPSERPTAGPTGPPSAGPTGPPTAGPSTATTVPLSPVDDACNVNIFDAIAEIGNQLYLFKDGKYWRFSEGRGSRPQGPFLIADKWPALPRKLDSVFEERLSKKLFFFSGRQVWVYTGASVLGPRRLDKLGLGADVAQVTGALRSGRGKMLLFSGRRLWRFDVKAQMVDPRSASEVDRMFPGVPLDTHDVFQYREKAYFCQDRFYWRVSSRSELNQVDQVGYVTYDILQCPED
Procedure: as §1

[3] = anesthetized rats, injection into femoral vein

Question: What does the source list for CNC(=O)[C@H](Cc1ccccc1)NC(=O)[C@H](CC(C)C)[C@H](CSc1cccs1)C(=O)NO [BB-94, Batimastat]?
Answer: drop in blood pressure (hypertensive SHR rats): about 80 mm of Hg; time after injection at which blood pressure dropped (hypertensive SHR rats): 20 min; time blood pressure remained at the reduced level (hypertensive SHR rats): at least 2.5 hours

Question: Which “effect on blood pressure” value [1, 3] does the source give for “AM(8-52): AM fragment generated by MMP-2 digestion; maintains intramolecular ring structure and α-amide; synthesized (FQGLRSFGCRFGTCTVQKLAHQIYQFTDKDKDNVAPRSKISPQGY-NH2; disulfide 9-14 (inferred); UniProt P35318 102-146, looked up, fragment)” here?
Answer: induced hypotension

Question: And the “intracellular elevation of cAMP” value [2]?
Answer: equal to the one induced by the intact AM molecule

Question: For “AM(11-22): peptide consisting of amino acids 11-22 of adrenomedullin (LRSFGCRFGTCT; PEPTIDE (1)..(12) Active peptide AM(11-22), corresponding to positions 11-22 of adrenomedullin (SEQ ID NO 3) and positions 105-116 of preproadrenomedullin (SEQ ID NO 2).; listed as Homo sapiens)”, which “vasopressor effect over basal levels” value ([1]; anesthetized rats, injection into femoral vein, n=5) is on record?
Answer: 71±24 mm Hg

Question: What about the duration of activity ([1]; vasoconstrictor activity in rats) of the same molecule?
Answer: on the order of hours

Question: And the “effect on cAMP response elicited by intact AM (1-52)” value ([2]; different (increasing) concentrations of peptide added with AM)?
Answer: did not affect the response

Question: What does the source list for “AM(11-26): AM fragment purified from bovine adrenal medulla (Kitamura et al.) (LRSFGCRFGTCTVQKL; ends and bridges not checked; cysteine pairing not given here; UniProt P35318 105-120, looked up, fragment)”?
Answer: duration of elevation in blood pressure (blood pressure): about 70 seconds; vasopressor activity (blood pressure): induced vasopressor activity

Question: For “AM(11-28): AM fragment generated by MMP-2 digestion; has the loop but not the carboxy end; synthesized (LRSFGCRFGTCTVQKLAH; disulfide 6-11 (inferred); UniProt P35318 105-122, looked up, fragment)”, which “effect on blood pressure” value [1, 3] is on record?
Answer: do not have any discernible effect

Question: Which “effect on blood pressure” value [1, 3] does the source give for “AM(11-52): AM fragment generated by MMP-2 digestion; maintains intramolecular ring structure and α-amide; synthesized (LRSFGCRFGTCTVQKLAHQIYQFTDKDKDNVAPRSKISPQGY-NH2; disulfide 6-11 (inferred); UniProt P35318 105-146, looked up, fragment)” here?
Answer: induced hypotension

Question: What about the “intracellular elevation of cAMP” value [2] of the same molecule?
Answer: equal to the one induced by the intact AM molecule

Question: For “AM(23-52): AM fragment generated by MMP-2 digestion; retains only the terminal amide; synthesized (VQKLAHQIYQFTDKDKDNVAPRSKISPQGY-NH2; UniProt P35318 117-146, looked up, fragment)”, which “effect on blood pressure” value [1, 3] is on record?
Answer: do not have any discernible effect

Question: Which “effect on blood pressure” value [1, 3] does the source give for “AM(29-52): AM fragment generated by MMP-2 digestion; retains only the terminal amide; synthesized (QIYQFTDKDKDNVAPRSKISPQGY-NH2; UniProt P35318 123-146, looked up, fragment)” here?
Answer: do not have any discernible effect

Question: With “AM-(1-21)-NH2: synthetic N-terminal AM fragment (Watanabe et al.) (YRQSMNNFQGLRSFGCRFGTC-NH2; ends and bridges not checked; UniProt P35318 95-115, looked up, fragment)” as the molecule, how does the “vasoactivity (vasodepressor or vasopressor)” value (from here on “vasoactivity”) (anesthetized rats) read?
Answer: vasopressor activity

Question: With “AM-(1-25)-NH2: synthetic N-terminal AM fragment (Watanabe et al.) (YRQSMNNFQGLRSFGCRFGTCTVQK-NH2; ends and bridges not checked; UniProt P35318 95-119, looked up, fragment)” as the molecule, how does the “vasoactivity” value (anesthetized rats) read?
Answer: vasodepressor activity

Question: With “AM-(1-25)-OH: synthetic N-terminal AM fragment (Watanabe et al.) (YRQSMNNFQGLRSFGCRFGTCTVQK-OH; ends and bridges not checked; UniProt P35318 95-119, looked up, fragment)” as the molecule, how does the “vasoactivity” value (anesthetized rats) read?
Answer: vasopressor activity

Question: Which “vasoactivity” value (anesthetized rats) does the source give for “AM-(1-31)-NH2: synthetic N-terminal AM fragment (Watanabe et al.) (YRQSMNNFQGLRSFGCRFGTCTVQKLAHQIY-NH2; ends and bridges not checked; UniProt P35318 95-125, looked up, fragment)” here?
Answer: vasopressor activity

Question: With “acetyl-AM-(16-21)-NH2: synthetic N-terminal AM fragment (Watanabe et al.) (Ac-CRFGTC-NH2; ends and bridges not checked; UniProt P35318 110-115, looked up, fragment)” as the molecule, how does the “vasoactivity” value (anesthetized rats) read?
Answer: vasopressor activity

Question: Which “vasoactivity” value (anesthetized rats) does the source give for “acetyl-AM-(16-36)-NH2: synthetic N-terminal AM fragment (Watanabe et al.) (Ac-CRFGTCTVQKLAHQIYQFTDK-NH2; ends and bridges not checked; UniProt P35318 110-130, looked up, fragment)” here?
Answer: vasopressor activity

Question: Which “reduction of blood pressure (hypotension)” value ([1]; anesthetized rats, injection into femoral vein, n=5, untreated systolic 125±10 mm Hg) does the source give for adrenomedullin [AM] here?
Answer: 55±5 mm Hg

Question: And the “intracellular elevation of cAMP” value [2]?
Answer: significant elevation of cAMP

Question: What about the “degradation by MMP-2” value (Human recombinant MMP-2) of the same molecule?
Answer: rapidly cleaves

Question: And the “degradation by MMP-9” value (Human recombinant MMP-9)?
Answer: resistance

— patent US7364719B2, “Vasoregulating compounds and methods of their use” (The United States of America as represented by the …, priority 2002, dated 2008)
